In test [1] the target is T1, K103N/Y181C double mutant RT (HIV-1 RT) (Human immunodeficiency virus type 1 group M subtype B, UniProt P03366, K702N/Y780C).
T1 construct: mutations that occur in the reverse transcriptase segment of the pol gene
The test is described as follows: biochemical.

Test [2] addresses T2, Y188L mutant RT (HIV-1 RT) (Human immunodeficiency virus type 1 group M subtype B, UniProt P03366, Y787L).
T2 construct: mutations that occur in the reverse transcriptase segment of the pol gene
In words: biochemical.

The target of test [3] is T3, WT RT (HIV-1 RT) (Human immunodeficiency virus type 1 group M subtype B, UniProt P03366).
T3 construct: mutations that occur in the reverse transcriptase segment of the pol gene
In words: biochemical.

The target in test [4] is T4, V106A mutant RT (HIV-1 RT) (Human immunodeficiency virus type 1 group M subtype B, UniProt P03366, V705A).
T4 construct: mutations that occur in the reverse transcriptase segment of the pol gene
In words: biochemical.

The subject of test [5] is K103N/Y181C (HIV-1 double mutant strain). The test is described as follows: EC50 assay, K103N/Y181C strain. The format is cell-based. The text has this: (§1) Reverse TranscriptASE (RT) Assays
(§2) The assays are as described in WO 01/96338A1, the contents of which are hereby incorporated herein. The results are listed in Tables 8 as IC50(nM) and EC50(nM).

Test [6] deals with WT RT (HIV-1 wild type strain). In words: EC50 assay, WT RT strain. The format is cell-based.
Source text: as §1, §2

[7] abbreviates: read-out: IC50 K103N/Y181C, K103N/Y181C double mutant RT.
The mark [8] stands for this setting: read-out: IC50 WT RT, wild type RT.
[9] abbreviates: read-out: EC50 K103N/Y181C, K103N/Y181C double mutant.
The mark [10] stands for this setting: read-out: EC50 WT RT, wild type.
The mark [11] stands for this setting: Human immunodeficiency virus 1, read-out: EC50 K103N/Y181C (nM), K103N/Y181C double mutant.
The mark [12] stands for this setting: Human immunodeficiency virus 1, read-out: EC50 WT RT (nM).

Like-named read-outs stand apart in the source and are kept apart here. A value given as a limit tells only on which side of the number the result lay.

Turning to `CCN1c2ncc(CCOc3ccc(/C=C/C(=O)O)c4ccccc34)cc2C(=O)N(C)c2ccc(F)nc21` [Entry 2014], the IC50 in test [1] (setting [7]) was 100 to 1000 nM; in test [2] (IC50 Y188L (nM)) it was greater than 1000 nM; in test [3] (setting [8]), less than 100 nM; in test [4] (read-out: IC50 V106A), 100 to 1000 nM. In addition, the figures for the EC50 in test [5] (setting [9]) and in test [6] (setting [10]) were 100 to 1000 nM and less than 100 nM, respectively.

As to `CCN1c2ncc(CCOc3ccc(/C=C/C(=O)O)c4ccccc34)cc2C(=O)N(C)c2ccc(Cl)nc21` [Entry 2016], the IC50 in test [1] (setting [7]) was 100 to 1000 nM; in test [2] (read-out: IC50 Y188L) it was 100 to 1000 nM; in test [3] (setting [8]) it was less than 100 nM; in test [4] (read-out: IC50 V106A), 100 to 1000 nM. Also, the EC50 is 100 to 1000 nM in test [5] (setting [9]) and less than 100 nM in test [6] (setting [10]).

Consider `CCN1c2ncc(CCOc3ccc(/C=C/C(=O)O)c4ccccc34)cc2C(=O)Nc2c(C)cc(Cl)nc21` [Entry 2018], for which the IC50 was 100 to 1000 nM in test [1] (setting [7]), greater than 1000 nM in test [2] (read-out: IC50 Y188L), less than 100 nM in test [3] (setting [8]) and 100 to 1000 nM in test [4] (IC50 V106A (nM)). For the same compound, the EC50 in test [5] (setting [9]) is 100 to 1000 nM; in test [6] (setting [10]), less than 100 nM.

Regarding `CCN1c2ncc(CCOc3ccc(CCC(=O)NN)c4ccccc34)cc2C(=O)N(C)c2cccnc21` [Entry 2020], the IC50 in test [1] (K103N/Y181C double mutant RT, read-out: IC50 K103N/Y181C) was 100 to 1000 nM; in test [2] (read-out: IC50 Y188L) it was greater than 1000 nM; in test [3] (wild type RT, read-out: IC50 WT RT) it was less than 100 nM; in test [4] (read-out: IC50 V106A), greater than 1000 nM. Moreover, the EC50 is 100 to 1000 nM in test [5] (K103N/Y181C double mutant, read-out: EC50 K103N/Y181C) and less than 100 nM in test [6] (wild type, read-out: EC50 WT RT).

For `CCN1c2ncc(CCOc3ccc4cc(C(=O)NN)ccc4c3)cc2C(=O)N(C)c2cccnc21` [Entry 3002], the IC50 is 100 to 1000 nM in test [1], greater than 1000 nM in test [2] (IC50 Y188L (nM)), less than 100 nM in test [3] and less than 100 nM in test [4] (IC50 V106A (nM)). Besides, the EC50 in test [5] (setting [11]) was 100 to 1000 nM; in test [6] (setting [12]), less than 100 nM.

As for `CCN1c2ncc(CCOc3ccc4cc(C(=O)NC(C)(C)C(=O)O)ccc4c3)cc2C(=O)N(C)c2cccnc21` [Entry 3003], the IC50 in test [1] was 100 to 1000 nM; in test [2] (IC50 Y188L (nM)), greater than 1000 nM; in test [3], less than 100 nM; in test [4] (IC50 V106A (nM)), 100 to 1000 nM. Moreover, the figures for the EC50 in test [5] (setting [11]) and in test [6] (setting [12]) were 100 to 1000 nM and less than 100 nM, respectively.

Regarding `CCN1c2ncc(CCOc3ccc4cc(CC(=O)NN)ccc4c3)cc2C(=O)N(C)c2cccnc21` [Entry 3005], the IC50 is 100 to 1000 nM in test [1], 100 to 1000 nM in test [2] (IC50 Y188L (nM)), less than 100 nM in test [3] and less than 100 nM in test [4] (IC50 V106A (nM)). Moreover, the EC50 in test [5] (setting [11]) and in test [6] (setting [12]) was less than 100 nM throughout.

In the case of `CCN1c2ncc(CCOc3ccc(C(=O)O)c4c3CCC4)cc2C(=O)N(C)c2cccnc21` [Entry 4001], the IC50 in test [1] is 100 to 1000 nM; in test [2] (IC50 Y188L (nM)), greater than 1000 nM; in test [3], less than 100 nM; in test [4] (IC50 V106A (nM)), 100 to 1000 nM. In addition, the EC50 in test [5] (setting [11]) and in test [6] (setting [12]) was less than 100 nM each time.

As for `CCN1c2ncc(CCOc3ccc(C(=O)O)c4c3CCC4)cc2C(=O)N(C)c2ccc(Cl)nc21` [Entry 4002], the IC50 in test [1] was less than 100 nM; in test [2] (IC50 Y188L (nM)) it was 100 to 1000 nM; in test [3], less than 100 nM; in test [4] (IC50 V106A (nM)), 100 to 1000 nM. Further, the EC50 in test [5] (setting [11]) and in test [6] (setting [12]) was less than 100 nM each time.

Take `CCN1c2ncc(CCOc3ccc(C(=O)O)c4c3CCCC4)cc2C(=O)N(C)c2ccc(Cl)nc21` [Entry 5002]: the IC50 was 100 to 1000 nM in test [1], 100 to 1000 nM in test [2] (IC50 Y188L (nM)), less than 100 nM in test [3] and greater than 1000 nM in test [4] (IC50 V106A (nM)). Moreover, the EC50 in test [5] (setting [11]) and in test [6] (setting [12]) was less than 100 nM in each case.

For `CCN1c2ncc(CCOc3ccc(C(=O)O)c4c3CCCC4)cc2C(=O)N(C)c2ccc(F)nc21` [Entry 5003], the IC50 in test [1] was 100 to 1000 nM; in test [2] (IC50 Y188L (nM)), 100 to 1000 nM; in test [3], less than 100 nM; in test [4] (IC50 V106A (nM)), greater than 1000 nM. In addition, the EC50 in test [5] (setting [11]) and in test [6] (setting [12]) was less than 100 nM each time.

With `CCN1c2ncc(CCOc3ccc(C(=O)O)c4c3CCCC4)cc2C(=O)N(C)c2ccc(C)nc21` [Entry 5004], the IC50 in test [1] was 100 to 1000 nM; in test [2] (IC50 Y188L (nM)), 100 to 1000 nM; in test [3], less than 100 nM; in test [4] (IC50 V106A (nM)) it was greater than 1000 nM. Besides, the EC50 in test [5] (setting [11]) and in test [6] (setting [12]) was less than 100 nM each time.

Consider `CCN1c2ncc(CCOc3ccc(C(=O)O)c4c3CCCC4)cc2C(=O)N(C)c2ccc(OC)nc21` [Entry 5005], for which the IC50 in test [1] is 100 to 1000 nM; in test [2] (IC50 Y188L (nM)) it was 100 to 1000 nM; in test [3] it was less than 100 nM; in test [4] (IC50 V106A (nM)), greater than 1000 nM. For the same compound, the EC50 in test [5] (setting [11]) and in test [6] (setting [12]) was less than 100 nM in each case.

`CCN1c2ncc(CCOc3ccc(CC(=O)O)c4c3CCCC4)cc2C(=O)N(C)c2ccc(Cl)nc21` [Entry 5007]: the IC50 was 100 to 1000 nM in test [1], 100 to 1000 nM in test [2] (IC50 Y188L (nM)), less than 100 nM in test [3] and 100 to 1000 nM in test [4] (IC50 V106A (nM)). Moreover, the EC50 in test [5] (setting [11]) and in test [6] (setting [12]) was less than 100 nM throughout.

Take `CCN1c2ncc(CCOc3ccc(CC(=O)O)c4c3CCCC4)cc2C(=O)N(C)c2ccc(F)nc21` [Entry 5008]: the IC50 in test [1] was 100 to 1000 nM; in test [2] (IC50 Y188L (nM)), greater than 1000 nM; in test [3] it was less than 100 nM; in test [4] (IC50 V106A (nM)), greater than 1000 nM. Further, the EC50 in test [5] (setting [11]) and in test [6] (setting [12]) was less than 100 nM in each case.

On to `CCN1c2ncc(CCOc3ccc(CCC(=O)O)c4c3CCCC4)cc2C(=O)N(C)c2cccnc21` [Entry 5009], for which the IC50 in test [1] was 100 to 1000 nM; in test [2] (IC50 Y188L (nM)), greater than 1000 nM; in test [3], less than 100 nM; in test [4] (IC50 V106A (nM)) it was greater than 1000 nM. In addition, the EC50 in test [5] (setting [11]) and in test [6] (setting [12]) was less than 100 nM each time.

As to `CCN1c2ncc(CCOc3ccc(CCC(=O)O)c4c3CCCC4)cc2C(=O)N(C)c2ccc(Cl)nc21` [Entry 5010], the IC50 is 100 to 1000 nM in test [1], 100 to 1000 nM in test [2] (IC50 Y188L (nM)), less than 100 nM in test [3] and greater than 1000 nM in test [4] (IC50 V106A (nM)). Further, the EC50 in test [5] (setting [11]) and in test [6] (setting [12]) was less than 100 nM each time.

Consider `CCN1c2ncc(CCOc3ccc(C(=O)O)c4c3CCN(C(=O)OC(C)(C)C)C4)cc2C(=O)N(C)c2cccnc21` [Entry 7003], for which the IC50 was 100 to 1000 nM in test [1], 100 to 1000 nM in test [2] (IC50 Y188L (nM)), less than 100 nM in test [3] and greater than 1000 nM in test [4] (IC50 V106A (nM)). The EC50 in test [5] (setting [11]) and in test [6] (setting [12]) was less than 100 nM in each case.

For the compound `CCNC(=O)N1CCc2c(OCCc3cnc4c(c3)C(=O)N(C)c3cccnc3N4CC)ccc(C(=O)O)c2C1` [Entry 7006], the IC50 in test [1] was 100 to 1000 nM; in test [2] (IC50 Y188L (nM)) it was greater than 1000 nM; in test [3], less than 100 nM; in test [4] (IC50 V106A (nM)) it was 100 to 1000 nM. In addition, the EC50 in test [5] (setting [11]) was greater than 1000 nM; in test [6] (setting [12]), 100 to 1000 nM.

As to `CCN1c2ncc(CCOc3ccc(C(=O)O)c4c3CCN(C(=O)N(C)C)C4)cc2C(=O)N(C)c2cccnc21` [Entry 7007], the IC50 in test [1] was less than 100 nM; in test [2] (IC50 Y188L (nM)), 100 to 1000 nM; in test [3], less than 100 nM; in test [4] (IC50 V106A (nM)) it was 100 to 1000 nM. Besides, the EC50 in test [5] (setting [11]) and in test [6] (setting [12]) was less than 100 nM in each case.

Consider `CCN1c2ncc(CCOc3ccc(C(=O)O)c4c3CCN(S(=O)(=O)N(C)C)C4)cc2C(=O)N(C)c2cccnc21` [Entry 7008], for which the IC50 was less than 100 nM in test [1], 100 to 1000 nM in test [2] (IC50 Y188L (nM)), less than 100 nM in test [3] and 100 to 1000 nM in test [4] (IC50 V106A (nM)). In addition, the EC50 in test [5] (setting [11]) and in test [6] (setting [12]) was less than 100 nM in each case.

The values are drawn from US6673791B2, “Non-nucleoside reverse transcriptase inhibitors” (Boehringer Ingelheim (Canada) Ltd., priority 2001, dated 2004).
